Assay results: US20250257051A1, “SUBSTITUTED PYRIMIDINE COMPOUNDS AS TYK2 INHIBITORS” (1910 Genetics Inc., priority 2022, published 2025)
Where a name gives a salt, the structure may show the parent alone.

Molecular target: human TYK2 (JH2domain-pseudokinase) (Homo sapiens (Human), UniProt P29597)
Assay: TYK2 JH2 Domain Binding Assay (KINOMEscan competition binding)
Details: KINOMEscan; 11-point 3-fold dilution, top concentration 30,000 nM; Kd measurements in duplicate; read-out: TYK JH2 (Kd)
Description: Binding constants for compounds disclosed herein may be determined by the KINOMEscan® assay developed by DiscoveRx. KINOMEscan® is based on a competition binding assay that quantitatively measures the ability of a compound to compete with an immobilized, active-site directed ligand. The assay is performed by combining three components: DNA-tagged kinase; immobilized ligand; and a test compound. The ability of the test compound to compete with the immobilized ligand is measure via quantitative PCR of the DNA tag.
Binding constants for compounds disclosed herein against the JH2 domain are determined by the following protocol for a KINOMEscan® assay (DiscoveRx). A fusion protein of a partial length construct of human TYK2 (JH2domain-pseudokinase) (amino acids G556 to D888 based on reference sequence NP 003322.3) and the DNA binding domain of NFkB is expressed in transiently transfected HEK293 cells. From these HEK 293 cells, extracts are prepared in M-PER extraction buffer (Pierce) in the presence of Protease Inhibitor Cocktail Complete (Roche) and Phosphatase Inhibitor Cocktail Set II (Merck) per manufacturers' instructions. The TYK2 (JH2domain-pseudokinase) fusion protein is labeled with a chimeric double-stranded DNA tag containing the NFkB binding site (5′-GGGAATTCCC-3′) fused to an amplicon for qPCR readout, which is added directly to the expression extract (the final concentration of DNA-tag in the binding reaction is 0.1 nM).
Streptavidin-coated magnetic beads (Dynal M280) are treated with a biotinylated small molecule ligand for 30 minutes at room temperature to generate affinity resins for the binding assays. The liganded beads are blocked with excess biotin and washed with blocking buffer (SeaBlock (Pierce), 1% BSA, 0.05% Tween 20, 1 mM DTT) to remove unbound ligand and to reduce nonspecific binding.
Extracts are used directly in binding assays without any enzyme purification steps at a >10,000-fold overall stock dilution (final DNA tagged enzyme concentration<0.1 nM). Extracts are loaded with DNA-tag and diluted into the binding reaction in a two-step process. First extracts are diluted 1:100 in 1× binding buffer (PBS/0.05% Tween 20/10 mM DTT/0.1% BSA/[…] sonicated salmon sperm DNA) containing 10 nM DNA-tag. This dilution is allowed to equilibrate at room temperature for 15 minutes and then subsequently diluted 1:100 in 1× binding buffer. Test compounds are prepared as 111× stocks in 100% DMSO. Kds are determined using an 11-point 3-fold compound dilution series with three DMSO control points. All compounds for Kd measurements are distributed by acoustic transfer (non-contact dispensing) in 100% DMSO. The compounds are then diluted directly into the assays such that the final concentration of DMSO is 0.9%. All reactions performed in polypropylene 384-well plates. Each is a final volume of 0.02 mL. Assays are incubated with shaking for 1 hour at room temperature. Then the beads are pelleted and washed with wash buffer (lx PBS, 0.05% Tween 20) to remove displaced kinase and test compound. The washed beads are re-suspended in elution buffer (lx PBS, 0.05% Tween 20, 0.5 μM non-biotinylated affinity ligand) and incubated at room temperature with shaking for 30 minutes. The kinase concentration in the eluates is measured by qPCR. qPCR reactions are assembled by adding 2.5 μL of kinase eluate to 7.5 μL of qPCR master mix containing 0.15 μM amplicon primers and 0.15 μM amplicon probe. The qPCR protocol consists of a 10-minute hot start at 95° C., followed by 35 cycles of 95° C. for 15 seconds, 60° C. for 1 minute.
Test compounds are prepared as 111× stocks in 100% DMSO. Kds are determined using an 11-point 3-fold compound dilution series with three DMSO control points. All compounds for Kd measurements are distributed by acoustic transfer (non-contact dispensing) in 100% DMSO. The compounds are then diluted directly into the assays such that the final concentration of DMSO is 0.9%. […]

Sequence of human TYK2 (JH2domain-pseudokinase) (P29597 556-888): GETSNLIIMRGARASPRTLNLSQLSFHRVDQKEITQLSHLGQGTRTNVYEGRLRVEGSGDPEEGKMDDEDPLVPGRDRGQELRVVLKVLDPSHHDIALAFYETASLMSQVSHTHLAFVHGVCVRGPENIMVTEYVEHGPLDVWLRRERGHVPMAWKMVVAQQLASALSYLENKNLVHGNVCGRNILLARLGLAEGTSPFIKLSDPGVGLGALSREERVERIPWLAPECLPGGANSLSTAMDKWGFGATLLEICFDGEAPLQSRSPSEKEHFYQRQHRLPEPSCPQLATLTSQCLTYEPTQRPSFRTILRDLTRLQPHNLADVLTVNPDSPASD

Kd [nM]	Compound
190	CNC(=O)c1cnc(N2CCN(C(=O)OC(C)(C)C)CC2C)nc1Nc1cccc(-c2ncc(F)cn2)c1OC (centres unmarked) [Compound 26, Tert-Butyl 4-(4-((3-(5-fluoropyrimidin-2-yl)-2-methoxyphenyl)amino)-5-(methylcarbamoyl)pyrimidin-2-yl)-3-methylpiperazine-1-carboxylate]
36	CNC(=O)c1cnc(N2CCC(C(=O)O)CC2)nc1Nc1cccc(-c2ncc(F)cn2)c1OC [Compound 27, 1-(4-((3-(5-fluoropyrimidin-2-yl)-2-methoxyphenyl)amino)-5-(methylcarbamoyl)pyrimidin-2-yl)piperidine-4-carboxylic acid]
2.3	CCOC(=O)C1CCN(c2ncc(C(=O)NC)c(Nc3cccc(-c4ncc(F)cn4)c3OC)n2)CC1 [Compound 28, Ethyl 1-(4-((3-(5-fluoropyrimidin-2-yl)-2-methoxyphenyl)amino)-5-(methylcarbamoyl)pyrimidin-2-yl)piperidine-4-carboxylate]
4600	CNC(=O)c1cnc(N2CCCNCC2)nc1Nc1ccccc1OC [Compound 29, 2-(1,4-diazepan-1-yl)-4-((2-methoxyphenyl)amino)-N-methylpyrimidine-5-carboxamide]
44000	CNC(=O)c1cnc(N2CCCN(C(=O)OC(C)(C)C)CC2)nc1Nc1ccccc1OC [Compound 30, Tert-Butyl 4-(4-((2-methoxyphenyl)amino)-5-(methylcarbamoyl)pyrimidin-2-yl)-1,4-diazepane-1-carboxylate]
4800	CNC(=O)c1cnc(N2CCNCC2C)nc1Nc1ccccc1OC (centres unmarked) [Compound 31, 4-((2-methoxyphenyl)amino)-N-methyl-2-(2-methylpiperazin-1-yl)pyrimidine-5-carboxamide Hydrochloride]
17000	CNC(=O)c1cnc(N2CCN(C(=O)OC(C)(C)C)CC2C)nc1Nc1ccccc1OC (centres unmarked) [Compound 32, Tert-Butyl 4-(4-((2-methoxyphenyl)amino)-5-(methylcarbamoyl)pyrimidin-2-yl)-3-methylpiperazine-1-carboxylate]
710	CNC(=O)c1cnc(N2CCC(C(=O)O)CC2)nc1Nc1ccccc1OC [Compound 33, 1-(4-((2-methoxyphenyl)amino)-5-(methylcarbamoyl)pyrimidin-2-yl)piperidine-4-carboxylic Acid]
760	CCOC(=O)C1CCN(c2ncc(C(=O)NC)c(Nc3ccccc3OC)n2)CC1 [Compound 34, Ethyl 1-(4-((2-methoxyphenyl)amino)-5-(methylcarbamoyl)pyrimidin-2-yl)piperidine-4-carboxylate]
710	NC(=O)c1cnc(N2CCC(C(=O)O)CC2)nc1Nc1ccc(C2CC2)nc1 [Compound 35, 1-(5-carbamoyl-4-((6-cyclopropylpyridin-3-yl)amino)pyrimidin-2-yl)piperidine-4-carboxylic acid]
660	CCOC(=O)C1CCN(c2ncc(C(N)=O)c(Nc3ccc(C4CC4)nc3)n2)CC1 [Compound 36, Ethyl 1-(5-carbamoyl-4-((6-cyclopropylpyridin-3-yl)amino)pyrimidin-2-yl)piperidine-4-carboxylate]
34	COc1c(Nc2nc(N3CCN(C(=O)OC(C)(C)C)CC3C)ncc2C(N)=O)cccc1-c1ncc(F)cn1 (centres unmarked) [Compound 37, Tert-Butyl 4-(5-carbamoyl-4-((3-(5-fluoropyrimidin-2-yl)-2-methoxyphenyl)amino)pyrimidin-2-yl)-3-methylpiperazine-1-carboxylate]
7.8	COc1c(Nc2nc(N3CCC(C(=O)O)CC3)ncc2C(N)=O)cccc1-c1ncc(F)cn1 [Compound 38, 1-(5-carbamoyl-4-((3-(5-fluoropyrimidin-2-yl)-2-methoxyphenyl)amino)pyrimidin-2-yl)piperidine-4-carboxylic Acid]
0.82	CCOC(=O)C1CCN(c2ncc(C(N)=O)c(Nc3cccc(-c4ncc(F)cn4)c3OC)n2)CC1 [Compound 39, Ethyl 1-(5-carbamoyl-4-((3-(5-fluoropyrimidin-2-yl)-2-methoxyphenyl)amino)pyrimidin-2-yl)piperidine-4-carboxylate]
19000	COc1ccccc1Nc1nc(N2CCCN(C(=O)OC(C)(C)C)CC2)ncc1C(N)=O [Compound 41, Tert-Butyl 4-(5-carbamoyl-4-((2-methoxyphenyl)amino)pyrimidin-2-yl)-1,4-diazepane-1-carboxylate]
3300	COc1ccccc1Nc1nc(N2CCNCC2C)ncc1C(N)=O (centres unmarked) [Compound 42, 4-((2-methoxyphenyl)amino)-2-(2-methylpiperazin-1-yl)pyrimidine-5-carboxamide hydrochloride]
7500	COc1ccccc1Nc1nc(N2CCN(C(=O)OC(C)(C)C)CC2C)ncc1C(N)=O (centres unmarked) [Compound 43, Tert-Butyl 4-(5-carbamoyl-4-((2-methoxyphenyl)amino)pyrimidin-2-yl)-3-methylpiperazine-1-carboxylate]
2400	COc1ccccc1Nc1nc(N2CCC(C(=O)O)CC2)ncc1C(N)=O [Compound 44, 1-(5-carbamoyl-4-((2-methoxyphenyl)amino)pyrimidin-2-yl)piperidine-4-carboxylic Acid]
200	CCOC(=O)C1CCN(c2ncc(C(N)=O)c(Nc3ccccc3OC)n2)CC1 [Compound 45, Ethyl 1-(5-carbamoyl-4-((2-methoxyphenyl)amino)pyrimidin-2-yl)piperidine-4-carboxylate]
6600	NC(=O)c1cnc(N2CCCNCC2)nc1Nc1ccc(C2CC2)nc1 [Compound 46, 4-((6-cyclopropylpyridin-3-yl)amino)-2-(1,4-diazepan-1-yl)pyrimidine-5-carboxamide Hydrochloride]
6700	CC(C)(C)OC(=O)N1CCCN(c2ncc(C(N)=O)c(Nc3ccc(C4CC4)nc3)n2)CC1 [Compound 47, Tert-Butyl 4-(S-carbamoyl-4-((6-cyclopropylpyridin-3-yl)amino)pyrimidin-2-yl)-1,4-diazepane-1-carboxylate]
0.5	CNC(=O)C1CN(c2ncc(C(N)=O)c(Nc3cccc(-c4ncc(F)cn4)c3OC)n2)C1 [Compound 48, 4-((3-(5-fluoropyrimidin-2-yl)-2-methoxyphenyl)amino)-2-(3-(methylcarbamoyl)azetidin-1-yl)pyrimidine-5-carboxamide]
2.3	CNC(=O)c1cnc(N2CC(C(=O)NC)C2)nc1Nc1cccc(-c2ncc(F)cn2)c1OC [Compound 49, 4-((3-(5-fluoropyrimidin-2-yl)-2-methoxyphenyl)amino)-N-methyl-2-(3-(methylcarbamoyl)azetidin-1-yl)pyrimidine-5-carboxamide]
110	CNC(=O)C1CN(c2ncc(C(N)=O)c(Nc3ccc(C4CC4)nc3)n2)C1 [Compound 50, 4-((6-cyclopropylpyridin-3-yl)amino)-2-(3-(methylcarbamoyl)azetidin-1-yl)pyrimidine-5-carboxamide]
1500	CNC(=O)c1cnc(N2CC(C(=O)NC)C2)nc1Nc1ccc(C2CC2)nc1 [Compound 51, 4-((6-cyclopropylpyridin-3-yl)amino)-N-methyl-2-(3-(methylcarbamoyl)azetidin-1-yl)pyrimidine-5-carboxamide]
1.6	CNC(=O)[C@H]1CCN(c2ncc(C(N)=O)c(Nc3cccc(-c4ncc(F)cn4)c3OC)n2)C1 [Compound 52, (S)-4-((3-(5-fluoropyrimidin-2-yl)-2-methoxyphenyl)amino)-2-(3-(methylcarbamoyl)pyrrolidin-1-yl)pyrimidine-5-carboxamide]
